# Reference: US12268727B2, “Bioactive polypeptides for improvements in plant protection, growth and productivity” (priority 2017, dated 2025)
# Several values for one entry are separate records, joined by “and”; a condition that tells them apart may be missing. Equal values may be shown once. Non-standard residues stand in square brackets, D forms with d. No end group written: not given here. sY = N[C@@H](Cc1ccc(OS(=O)(=O)O)cc1)C(=O)O
# Experiments:
# [1] = test system: reactive oxygen species (ROS) production in corn tissue; experiment: ROS activity assay in corn tissue (luminol/horseradish peroxidase, RLU)
# [2] = test system: reactive oxygen species (ROS) production in soybean leaf tissue; experiment: ROS activity assay in soybean leaf tissue (luminol/horseradish peroxidase, RLU); type: cell-based; conditions: for Description of ROS activity results (soybean): observed
# [3] = test system: reactive oxygen species (ROS) production in tomato leaf tissue; experiment: ROS activity assay in tomato leaf tissue; type: cell-based
# Procedure: Tomato leaves were excised from 4-week-old plants using a cork borer to generate 4 mm disks. Each disc was cut in half using the edge of a razor blade, and then each disc half was floated on 150 μL of water in a 96-well plate to rest overnight. The next day, the water was removed from each well just prior to polypeptide treatment. The Flg polypeptides as described in Table 66 were added to water to bring them to a final concentration of 5 nM (Table 67) and 100 nM (Table 68) in solution with luminol and HRP before adding to each treatment well. To maintain activity, the polypeptides were stored in small aliquots to avoid multiple freezing and thawing. All dilutions to obtain working concentrations were done in ultrapure water. Polypeptide solutions were stored at −20° C. for short term usage or −80° C. for long term storage. RLU values and relative ROS activity (Tables 67, 68) is reported as the average of 4 measurements.
# corn [4] = experiment: Foliar application to corn in growth room, plant height (non-stress, heat and water deficit stress); conditions: for growth phenotype vs control: foliar (HpaG-like 1 μM, PSKα)
# corn [5] = experiment: Seed treatment of corn, field yield trials; type: in vivo
# soybean [6] = experiment: Seed treatment of soybean, field yield trials; type: in vivo
# corn [7] = type: in vivo; conditions: foliar 0.33 Fl. oz/Ac, V5-V8, first year trials, 10 locations
# soybean [8] = experiment: Foliar application to soybean, field yield trials; type: in vivo; conditions: 11 locations
# [9] = Table 33, RLU relative to native Bt.4Q7Flg22 = 100
# [10] = Table 35, single polypeptides and combinations, Bt.4Q7Flg22 = 100
# [11] = mutant versus native Bt.4Q7Flg22
# [12] = mutant versus native Bt.4Q7Flg22, *(predicted)
# [13] = seed treatment on base ST, polypeptide 1.0 μM (cellobiose 1 mM where combined)
substance,measurement,setting,value
A spp.Flg22-B4 (ERLSSGYRINRASDDAAGLAIS),Avg. Activity (%) Corn (5828 YX) 5 nM polypeptide,[1]; [9],78.1%
same,Avg. Activity (%) Corn (5828 YX) 5 nM polypeptide,[1]; [10],53.64%
same,Avg. Activity (%) Soybean (297 R4) 100 nM polypeptide,[2]; [9],133.1%
same,Avg. Activity (%) Soybean (297 R4) 100 nM polypeptide,[2]; [10],106.37%
A.spp.FlgII28: FlgII-28 from Aneurinibacillus sp. XH2 (EIHEMLQRMRELAVQAANGTYSDKDKKA; listed as Aneurinibacillus sp.),ROS response,[3]; 5 nM,equally low ROS response
At. PSKα ([sY]I[sY]TQ; listed as Arabidopsis thaliana),Plant Height (cm) Percentage Change Compared to Control (0.01% surfactant) Stress,"corn [4]; separate replicated trials, stress environment, HpaG-like 1 μM, At. PSKα 100 nM foliar",+6.1%
Bp.Flg22 (TRLSSGKRINSAADDAAGLAIS),Avg. Activity (%) Corn (5828 YX) 5 nM polypeptide,[1]; [9],111.2%
same,Avg. Activity (%) Soybean (297 R4) 100 nM polypeptide,[2]; [9],67.2%
Bt 4Q7Flg 22 (DRLSSGKRINSASDDAAGLAIA; listed as Bacillus thuringiensis),Δ Height (cm),"corn [4]; corn Beck's 5828 YH, 1 μM foliar, 3 to 5 weeks",5.40 cm
same,Δ Height Normalized as a percentage of control height,"corn [4]; corn Beck's 5828 YH, 1 μM foliar, vs water control",+3.7%
DRLSSGKRINNASDDAAGLAIA [SEQ ID NO: 294],Avg. Activity (%) Soybean (297 R4) 100 nM polypeptide,[2]; [9],90.0%
DRLSSGKRINSASDDAAGLQIA (listed as Bacillus thuringiensis) [SEQ ID NO: 572],Description of ROS activity results (corn),"[1]; mutant versus native Bt.4Q7Flg22, observed",A20Q mutation: Negative ROS activation
same,Description of ROS activity results (soybean),[2]; [11],A20Q mutation: Negative ROS activation
DRLSSGKRINSASDDPAGLAIA [Syn05Flg22],% Activity (compared to unmodified Syn05Flg22 (SEQ ID NO: 578)),[1]; corn leaf slices,100.0%
same,Polypeptide Concentration (nM) for 5 × 10^4 total RLU production,"[1]; corn leaf slices, from best-fit regression",19.5 nM
same,% Activity (compared to Syn0Flg22; SEQ ID NO: 578),"[2]; soybean leaf discs, Table 73 data set",100.0%
same,Polypeptide Concentration (nM) for 5 × 10^4 total RLU production,"[2]; soybean leaf discs, from best-fit regression, Table 73 data set",89.8 nM
DRLSSGQRINSASDDAAGLAIA [SEQ ID NO: 579],"Description of ROS activity results (corn), predicted",[1]; [12],K7Q mutation: Strong reduction in ROS
same,"Description of ROS activity results (soybean), predicted",[2]; [12],K7Q mutation: Strong reduction in ROS
EKLSSGFRINRAGDDAAGLAIS (Lysinibacillus macroides) [SEQ ID NO: 584],Avg. Activity (%) Corn (5828 YX) 5 nM polypeptide,"[1]; Table 33, RLU relative to native Bt.4Q7Flg22 = 100, listed as Lm.Flg22-L6",58.7% and 33.7%
EKLSSGQRINSASDDAAGLAIS (listed as Bacillus aryabhattai) [SEQ ID NO: 289],Avg. Activity (%) Corn (5828 YX) 5 nM polypeptide,[1]; [9],27.1%
same,Avg. Activity (%) Soybean (297 R4) 100 nM polypeptide,[2]; [9],42.2%
EKLSSGYKINRASDDAAGLAIS (Lysinibacillus spp.) [SEQ ID NO: 581],Avg. Activity (%) Corn (5828 YX) 5 nM polypeptide,[1]; [9],36.4%
same,Avg. Activity (%) Soybean (297 R4) 100 nM polypeptide,[2]; [9],96.9%
"ESTNILQRMRELAVQSRNDSNSATDREA (listed as Pseudomonas syringae) [Ps.tomato FlgII-28, FlgII-28 from Pseudomonas syringae pv. tomato DC3000]",RLU relative to Bt.4Q7Flg22 at the same concentration,[3]; 5 nM,~31 ×
same,ROS response,[3]; 5 nM,strong ROS response
same,ROS response,[3]; 100 nM,strong ROS response
GKLSSGLRINGASDDAAGLAIS (listed as Paenibacillus sp.) [Pa.Flg22],yield gain vs base seed treatment only,"corn [5]; 1 uM in slurry, 3 hybrids, 8 locations",3.57 Bu/Ac
same,Average Yield Bu/Ac,"corn [5]; seed treatment on base ST, BECK's 5828YX, 1 location, four replicated trials, polypeptide 1.0 μM (cellobiose 1 mM where combined)",39.04 Bu/Ac
same,Average Change in Bu/Ac compared to Untreated Control,"corn [5]; seed treatment on base ST, BECK's 5828YX, polypeptide 1.0 μM (cellobiose 1 mM where combined)",+11.04 Bu/Ac
same,Avg. Activity (%) Corn (5828 YX) 5 nM polypeptide,[1]; [9],116.0%
same,Avg. Activity (%) Soybean (297 R4) 100 nM polypeptide,[2]; [9],88.6%
same,Average Yield Bu/Ac,"soybean [6]; seed treatment on base ST, 1 variety, 1 location, four replicate plots, polypeptide 1.0 μM (cellobiose 1 mM where combined)",41.39 Bu/Ac
same,Average Change in Bu/Ac compared to Untreated Control,soybean [6]; [13],+0.28 Bu/Ac
L spp.Flg22-L2 (EKLSSGLRINRAGDDAAGLAIS),Avg. Activity (%) Corn (5828 YX) 5 nM polypeptide,[1]; [9],104.5%
same,Avg. Activity (%) Corn (5828 YX) 5 nM polypeptide,[1]; [10],113.04%
same,Avg. Activity (%) Soybean (297 R4) 100 nM polypeptide,[2]; [9],128.6%
same,Avg. Activity (%) Soybean (297 R4) 100 nM polypeptide,[2]; [10],138.86%
LRISSGYRINSAADDPAGLAIS (Lysinibacillus spp.) [SEQ ID NO: 582],Avg. Activity (%) Corn (5828 YX) 5 nM polypeptide,[1]; [9],60.1%
same,Avg. Activity (%) Soybean (297 R4) 100 nM polypeptide,[2]; [9],117.9%
LRISTGYRINSAADDPAGLAIS (listed as Lysinibacillus fusiformis) [SEQ ID NO: 583],Avg. Activity (%) Corn (5828 YX) 5 nM polypeptide,[1]; [9],59.3%
same,Avg. Activity (%) Soybean (297 R4) 100 nM polypeptide,[2]; [9],111.6%
LRLSSGYRINSAADDAAGLAIS (listed as Lysinibacillus sp.) [SEQ ID NO: 291],Avg. Activity (%) Corn (5828 YX) 5 nM polypeptide,[1]; [9],26.6%
same,Avg. Activity (%) Soybean (297 R4) 100 nM polypeptide,[2]; [9],64.1%
NQGISEKQLDQLLTQLIMALLQQ (Xanthomonas species) [HpaG-like],growth phenotype vs control,corn [4]; heat and water deficit stress,not stressed environments
same,growth phenotype vs control,corn [4]; non-stressed environment,improved growth phenotype in normal environments
NRLSSGKQINSASDDAAGLAIA (listed as Bacillus manliponensis) [SEQ ID NO: 290],Avg. Activity (%) Corn (5828 YX) 5 nM polypeptide,[1]; [9],106.0%
same,Avg. Activity (%) Soybean (297 R4) 100 nM polypeptide,[2]; [9],74.6%
NRLSSGKRINSAADDAAGLAIA [SEQ ID NO: 295],Avg. Activity (%) Corn (5828 YX) 5 nM polypeptide,[1]; [9],134.7%
same,Avg. Activity (%) Corn (5828 YX) 5 nM polypeptide,[1]; [10],142.53%
same,Avg. Activity (%) Soybean (297 R4) 100 nM polypeptide,[2]; [9],83.0%
same,Avg. Activity (%) Soybean (297 R4) 100 nM polypeptide,[2]; [10],97.59%
NRLSSGKRINTAADDAAGLAIS (listed as Burkholderia ubonensis) [SEQ ID NO: 538],Avg. Activity (%) Corn (5828 YX) 5 nM polypeptide,[1]; [9],92.9%
same,Avg. Activity (%) Soybean (297 R4) 100 nM polypeptide,[2]; [9],91.1%
P spp.Flg22-B6 (GKLSSGLRINGASDDAAGLAIS),Avg. Activity (%) Corn (5828 YX) 5 nM polypeptide,[1]; [9],135.3%
same,Avg. Activity (%) Corn (5828 YX) 5 nM polypeptide,[1]; [10],103.61%
same,Avg. Activity (%) Soybean (297 R4) 100 nM polypeptide,[2]; [9],112.5%
same,Avg. Activity (%) Soybean (297 R4) 100 nM polypeptide,[2]; [10],132.95%
"QRLSSGKRINSASDDAAGLAIA (listed as Bacillus thuringiensis) [Bt.4Q7Flg22-Syn03, Modified FLG22-Bt4Q7 (D1Q)]",ROS activity compared to native Bt.4Q7Flg22,"[1]; 0.25-100 nM, tissue not given",increased ROS activities
same,ROS-inducing activity among tested polypeptides,[1]; corn (5 nM) and soybean (100 nM),strongest ROS-inducing activity
same,Description of ROS activity results (soybean),[2]; [11],D1Q mutation: Strong ROS activation in
RI Bt.4Q7Flg22: retro-inverso form of Bt.4Q7Flg22 ([dA][dI][dA][dL]G[dA][dA][dD][dD][dS][dA][dS][dN][dI][dR][dK]G[dS][dS][dL][dR][dD]; listed as Bacillus thuringiensis),yield advantage,"corn [5]; second study, 12 locations",0.5 Bu/Ac
same,average yield increase vs non-treated control,corn [7],11.90 Bu/Ac
same,win rate,corn [7],70%
same,win rate,soybean [8]; R2 foliar 0.33 Fl. oz/Ac,64%
same,average yield change vs non-treated control,"soybean [8]; R2 foliar, Flg22 polypeptides 0.33 Fl. oz/Ac, RHPP 4 Fl. oz/Ac",0.90 Bu/Ac
same,win rate,"soybean [6]; third study, 12 locations",55%
same,yield benefit,"soybean [6]; third study, 12 locations",0.3 Bu/Ac
Syn03Flg22 (QRLSSGKRINSASDDAAGLAIA),Average Change in Bu/Ac compared to Untreated Control,soybean [6]; [13],+2.50 Bu/Ac
